± gives the standard deviation of the averaged measurements.
Tested on: HL-60
Assay: cell viability (% survival relative to DMSO control); higher = less cytotoxic
Conditions: 72 h
Outline: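 Four-parameter log-logistic fits in drc and PharmacoGx supplied area under the curve where it is given. Underlying viability came from CellTiter-Glo, normalised to DMSO and proteasome-inhibitor wells, with the proteasome inhibitor at 10 μM. HL-60 cells in RPMI 1640 plus 10% FBS had been rescreened against the full library at five tenfold concentrations of 1–10,000 nM, in duplicate on 384-well plates, with DMSO or 100 nM of one of three metabolic inhibitors, for 72 h at 37 °C, 5% CO2.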

[1] = 0.001 µM, co-treatment: AZD3965 100 nM
[2] = 0.001 µM, co-treatment: DMSO vehicle
[3] = 0.001 µM, co-treatment: GSK2194069 100 nM
[4] = 0.001 µM, co-treatment: pictilisib 100 nM
[5] = 0.01 µM, co-treatment: AZD3965 100 nM
[6] = 0.01 µM, co-treatment: DMSO vehicle
[7] = 0.01 µM, co-treatment: GSK2194069 100 nM
[8] = 0.01 µM, co-treatment: pictilisib 100 nM
[9] = 0.1 µM, co-treatment: AZD3965 100 nM
[10] = 0.1 µM, co-treatment: DMSO vehicle
[11] = 0.1 µM, co-treatment: GSK2194069 100 nM
[12] = 0.1 µM, co-treatment: pictilisib 100 nM
[13] = 1 µM, co-treatment: AZD3965 100 nM
[14] = 1 µM, co-treatment: DMSO vehicle
[15] = 1 µM, co-treatment: GSK2194069 100 nM
[16] = 1 µM, co-treatment: pictilisib 100 nM
[17] = 10 µM, co-treatment: AZD3965 100 nM
[18] = 10 µM, co-treatment: DMSO vehicle
[19] = 10 µM, co-treatment: GSK2194069 100 nM
[20] = 10 µM, co-treatment: pictilisib 100 nM

Row | Compound | cell viability [1] | cell viability [2] | cell viability [3] | cell viability [4] | cell viability [5] | cell viability [6] | cell viability [7] | cell viability [8] | cell viability [9] | cell viability [10] | cell viability [11] | cell viability [12] | cell viability [13] | cell viability [14] | cell viability [15] | cell viability [16] | cell viability [17] | cell viability [18] | cell viability [19] | cell viability [20]
1 | OCCN1CCN(CCCN2c3ccccc3Sc3ccc(Cl)cc32)CC1 [Perphenazine] | 101 ± 1.7% | 105 ± 2.5% | 98.1 ± 2.6% | 99.74 ± 0.41% | 99.4 ± 5.2% | 102 ± 1.6% | 101 ± 11% | 105 ± 2% | 107 ± 5.8% | 105 ± 4.4% | 95.1 ± 16% | 107 ± 8.5% | 98.6 ± 1.1% | 103.72 ± 0.059% | 97.5 ± 15% | 109 ± 5.6% | 86.3 ± 7% | 91.3 ± 5.4% | 55.4 ± 12% | 61.7 ± 8%
2 | C=CCc1ccc2c(c1O)C(=O)c1ccccc1C2=O [R162] | 106 ± 5.3% | 103 ± 1.6% | 102 ± 2.1% | 102 ± 18% | 99.12 ± 0.61% | 103 ± 3.5% | 103 ± 8.4% | 101 ± 10% | 104 ± 4.1% | 98.1 ± 2.4% | 98.5 ± 4.3% | 101 ± 7.5% | 102 ± 1.3% | 100.6 ± 0.84% | 100 ± 2.6% | 104 ± 2.5% | 106 ± 4.2% | 97.8 ± 2.4% | 97.07 ± 0.71% | 90.6 ± 9.3%
3 | O=C(c1ccc(OCCN2CCCCC2)cc1)c1c(-c2ccc(O)cc2)sc2cc(O)ccc12 [Raloxifene] | 93 ± 9.2% | 85.9 ± 11% | 79.1 ± 13% | 104.6 ± 0.91% | 91.9 ± 19% | 80.4 ± 24% | 80.5 ± 22% | 94.1 ± 9% | 98 ± 1.4% | 101 ± 2.3% | 93.3 ± 1.2% | 99.7 ± 8.1% | 101 ± 8.2% | 97.14 ± 0.84% | 87.1 ± 23% | 105 ± 2.5% | 100.7 ± 0.99% | 101 ± 1.9% | 70.9 ± 18% | 113 ± 9.9%
4 | NC(=O)c1ncn([C@@H]2O[C@H](CO)[C@@H](O)[C@H]2O)n1 [Ribavirin] | 100 ± 3.5% | 100.3 ± 0.67% | 92.1 ± 6.2% | 105 ± 7.1% | 100 ± 4.4% | 102 ± 1.6% | 76.6 ± 27% | 106 ± 5% | 99.2 ± 3.9% | 102 ± 3% | 94.1 ± 5.5% | 101 ± 3% | 99.8 ± 4.1% | 97.1 ± 3.6% | 90.1 ± 14% | 107 ± 3.6% | 106 ± 2.2% | 104 ± 4.4% | 90.4 ± 12% | 104 ± 3.7%
5 | Nc1ncnc2c1ncn2[C@@H]1O[C@H](CSCC[C@H](N)C(=O)O)[C@@H](O)[C@H]1O [S-Adenosyl Homocysteine] | 103 ± 18% | 97.1 ± 11% | 91.8 ± 36% | 108 ± 33% | 85.2 ± 20% | 93.3 ± 4.4% | 86.7 ± 12% | 78.6 ± 4.6% | 101 ± 3.4% | 98.6 ± 3.3% | 103 ± 8.4% | 102 ± 5.2% | 97.2 ± 3.1% | 98.5 ± 2.5% | 99.08 ± 0.63% | 97.8 ± 7% | 101.99 ± 0.033% | 99.4 ± 3.9% | 94.5 ± 13% | 98 ± 4.3%
6 | CCCc1nn(C)c2c(O)nc(-c3cc(S(=O)(=O)N4CCN(C)CC4)ccc3OCC)nc12 [Sildenafil] | 104 ± 6.6% | 88.1 ± 13% | 91.3 ± 6.8% | 79.6 ± 40% | 99.2 ± 1.4% | 98.4 ± 4.1% | 96.77 ± 0.75% | 102 ± 7.1% | 104.5 ± 0.69% | 106 ± 5.1% | 123 ± 12% | 117 ± 10% | 99.4 ± 4.6% | 103 ± 2.1% | 97.06 ± 0.92% | 93.6 ± 18% | 99.89 ± 0.83% | 102 ± 2.9% | 93 ± 1.7% | 94.7 ± 7.5%
7 | Cc1coc2c1C(=O)C(=O)c1c-2ccc2c(C)cccc12 [Tanshinone I] | 100.1 ± 0.2% | 97.288 ± 0.063% | 94.6 ± 6.6% | 97.1 ± 5.6% | 101 ± 1.8% | 103 ± 6.3% | 103.8 ± 0.31% | 104 ± 3.1% | 104 ± 9.7% | 101.8 ± 0.9% | 108 ± 12% | 101 ± 0.32% | 104 ± 1.6% | 103.5 ± 0.31% | 102 ± 4.4% | 103.6 ± 0.57% | 100.3 ± 0.27% | 97.2 ± 5.3% | 101 ± 1.4% | 106 ± 9.7%
8 | CCOC(=O)N1c2ccc(C(F)(F)F)cc2[C@@H](N(Cc2cc(C(F)(F)F)cc(C(F)(F)F)c2)C(=O)OC)C[C@H]1CC [Torcetrapib] | 101 ± 1.8% | 104.8 ± 1% | 101 ± 10% | 113 ± 16% | 98.6 ± 2.3% | 99.13 ± 0.66% | 104 ± 15% | 105 ± 22% | 97.5 ± 4% | 98.7 ± 8.2% | 88 ± 9.7% | 83.6 ± 18% | 97.7 ± 6.2% | 103 ± 6.9% | 94.9 ± 7.2% | 100 ± 4.2% | 98.8 ± 5.5% | 100 ± 1.6% | 95.4 ± 16% | 117 ± 21%
9 | Oc1cc(Cl)ccc1Oc1ccc(Cl)cc1Cl [Triclosan] | 100 ± 3.6% | 101 ± 2.6% | 102 ± 4.7% | 93.3 ± 13% | 104 ± 5.1% | 98.7 ± 7.6% | 107 ± 9.5% | 120 ± 9.4% | 96.5 ± 1.2% | 99.7 ± 1.2% | 95.3 ± 5.2% | 95.7 ± 12% | 94.9 ± 7.2% | 99.6 ± 1.5% | 105 ± 4.4% | 111 ± 3.4% | 103 ± 3.2% | 111 ± 4% | 99.7 ± 2.5% | 107.6 ± 0.22%
10 | COc1cc2c(NC3CCN(C)CC3)nc(N3CCCN(C)CC3)nc2cc1OCCCN(C)C [UNC0224] | 102 ± 2.2% | 104 ± 2.2% | 114 ± 13% | 101 ± 1.9% | 101 ± 5.6% | 103 ± 7.6% | 113 ± 31% | 108 ± 0.28% | 100 ± 1.5% | 102 ± 6.9% | 96.8 ± 5.5% | 102 ± 9.6% | 99.416 ± 0.052% | 101 ± 1.8% | 96.3 ± 3.7% | 103 ± 1.8% | 95.6 ± 0.11% | 93.3 ± 4.4% | 91.9 ± 6.9% | 74.8 ± 9.6%
11 | CC(C)C[C@H](NC(=O)[C@@H](O)[C@H](N)Cc1ccccc1)C(=O)O [Ubenimex] | 101 ± 4.3% | 104 ± 3.4% | 102 ± 3.6% | 99.1 ± 1.1% | 101 ± 11% | 103 ± 1.4% | 95.6 ± 11% | 93.2 ± 11% | 99.3 ± 9.9% | 102 ± 3.4% | 107 ± 2% | 104 ± 7.1% | 98.1 ± 2.2% | 97.6 ± 5.8% | 94 ± 4.7% | 79.3 ± 1.4% | 106 ± 2% | 95.3 ± 1.6% | 103 ± 5.7% | 98.8 ± 3.3%
12 | O=P(O)(O)C(O)(Cn1ccnc1)P(=O)(O)O [Zoledronic acid] | 102 ± 2.9% | 98.3 ± 11% | 91.7 ± 49% | 81.3 ± 24% | 101 ± 2.4% | 99.8 ± 2.5% | 92.3 ± 6.2% | 98.9 ± 1.2% | 102 ± 2.3% | 101 ± 1.7% | 95.8 ± 4.7% | 100 ± 9.7% | 101 ± 2.5% | 105.3 ± 0.2% | 103 ± 14% | 108 ± 12% | 98 ± 3.6% | 101 ± 5.2% | 80 ± 26% | 98 ± 7.6%

From the supplement of paper PMC8671470
